Data: PubChem BioAssay (NCI)
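Interpolation was linear, between the two tested concentrations surrounding the appropriate level; five concentrations were tested over 48 hours in 96-well plates. GI50: concentration for 50% inhibition of growth. At the TGI there is no net growth.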

How the values were obtained:
Assay in all cases: inhibition of tumour cell growth, NCI panel, 48 h
SF-295 CNS = tested on: SF-295 CNS
RPMI-8226 leukemia = tested on: RPMI-8226 leukemia
HS 578T breast = tested on: HS 578T breast
IGROV1 ovarian = tested on: IGROV1 ovarian
SF-539 CNS = tested on: SF-539 CNS
OVCAR-3 ovarian = tested on: OVCAR-3 ovarian
SNB-19 CNS = tested on: SNB-19 CNS
OVCAR-8 ovarian = tested on: OVCAR-8 ovarian
HOP-92 NSCLC = tested on: HOP-92 NSCLC
A498 renal = tested on: A498 renal

Structure (SMILES) | TGI (SF-295 CNS) | TGI (RPMI-8226 leukemia) | TGI (HS 578T breast) | TGI (IGROV1 ovarian) | TGI (SF-539 CNS) | TGI (OVCAR-3 ovarian) | TGI (SNB-19 CNS) | TGI (OVCAR-8 ovarian) | TGI (HOP-92 NSCLC) | TGI (A498 renal) | GI50 (A498 renal) | GI50 (SF-295 CNS) | GI50 (RPMI-8226 leukemia) | GI50 (HS 578T breast) | GI50 (IGROV1 ovarian) | GI50 (OVCAR-3 ovarian) | GI50 (OVCAR-8 ovarian) | GI50 (SF-539 CNS) | GI50 (SNB-19 CNS) | GI50 (HOP-92 NSCLC)
CN1Cc2cc(O)c(O)cc2C(O)C1 (stereo not given) | > 100 µM | > 100 µM | > 100 µM | > 100 µM | > 100 µM | > 100 µM | > 100 µM | > 100 µM | > 100 µM |  |  |  |  |  |  |  |  |  |  | 
CC(C(=O)c1ccncc1)c1ccccn1 (stereo not given) | > 100 µM | > 100 µM | > 100 µM | > 100 µM |  | > 100 µM | > 100 µM | > 100 µM | > 100 µM | > 100 µM |  |  |  |  |  |  |  |  |  | 
COC(=O)C(Cc1ccc(N(C)C)cc1)(NC(=O)c1ccccc1)P(=O)(OC)OC (stereo not given) | > 100 µM | > 100 µM |  | > 100 µM | > 100 µM |  | > 100 µM | > 100 µM | > 100 µM | > 100 µM |  |  |  |  |  |  |  |  |  | 
S=c1nc(N/N=C/c2cccs2)c2cn[nH]c2[nH]1 | 41.4 µM | 62.6 µM | > 100 µM | 75.1 µM | > 100 µM | 34.1 µM | > 100 µM | > 100 µM | > 100 µM | > 100 µM |  |  |  |  |  |  |  |  |  | 
COc1ccc(NC(C(N)=O)c2cc3cc(Br)ccc3nc2Cl)cc1 (stereo not given) | > 100 µM | > 100 µM | > 100 µM | > 100 µM | > 100 µM | > 100 µM | > 100 µM | > 100 µM | 99.7 µM | > 100 µM |  |  |  |  |  |  |  |  |  | 
COC1=C(C)C(=O)C2=C(C1=O)C1C3CC4=C(C(=O)C(OC)=C(C)C4=O)C(CNC(=O)C(C)O)N3C(C#N)C(C2)N1C (stereo not given) | 0.753 µM | < 0.215 µM | < 0.01 µM | 1.07 µM | < 0.0117 µM | < 0.01 µM | 1.92 µM | 1.32 µM | < 0.01 µM |  |  |  |  |  |  |  |  |  |  | 
C=CC(C)C1(CCCOCc2ccccc2)C(=S)N2CCC3(CC24CCCC14)OCCO3 (stereo not given) | > 100 µM | 10.4 µM |  | > 100 µM |  | > 100 µM | > 100 µM | > 100 µM |  | > 100 µM |  |  |  |  |  |  |  |  |  | 
COC1=CC(=O)C=C(OC)C1=O | 34.6 µM | 20.5 µM |  | 31.3 µM | 37.8 µM | 32.2 µM | 27 µM | 32.1 µM | 7.89 µM | 3.39 µM |  |  |  |  |  |  |  |  |  | 
COC(=O)CNC(=O)CCC(C)[C@H]1CCC2C3C(C[C@H](OC(C)=O)[C@@]21C)[C@@]1(C)CCC2(C[C@H]1C[C@H]3OC(C)=O)OOC1(CC[C@]3(C)C4C[C@H](OC(C)=O)[C@@]5(C)C(CC[C@@H]5C(C)CCC(=O)NCC(=O)OC)C4[C@H](OC(C)=O)C[C@@H]3C1)OO2 (stereo not given in full) | 24.7 µM |  | 2.37 µM | 1.91 µM | 1.8 µM | 15.9 µM | > 50 µM |  | 2.64 µM | 39.8 µM |  |  |  |  |  |  |  |  |  | 
COC(=O)[C@]1(c2ccc(N(C)C)cc2OC)C[C@@H]2CCCN(CCc3c1[nH]c1ccccc31)C2 | > 60.7 µM | 63.2 µM |  | 48 µM | 36.8 µM | 36.4 µM | > 100 µM | 57.9 µM | 33.4 µM | 47 µM |  |  |  |  |  |  |  |  |  | 
COc1cc2c(cc1Oc1c(Oc3c(O)c(OC)cc4c3C(CC(C)C)N(C)CC4)c(OC)cc3c1C(CC(C)C)N(C)CC3)C(CC(C)C)N(C)CC2 (stereo not given) | 5.04 µM | 10.4 µM |  | 15.1 µM | 1.45 µM | 11.4 µM | 2.18 µM | 8.24 µM | 7.87 µM | 0.304 µM |  |  |  |  |  |  |  |  |  | 
O=C(Nc1ccccc1Cl)c1ccc([N+](=O)[O-])cc1 | > 100 µM | > 100 µM |  | > 100 µM | > 100 µM | > 100 µM | > 100 µM | > 100 µM |  | > 100 µM |  |  |  |  |  |  |  |  |  | 
COC(=O)c1cn(CC(O)CCl)nn1 (stereo not given) |  | > 100 µM | > 100 µM | > 100 µM | > 100 µM | > 100 µM | > 100 µM | > 100 µM | > 100 µM | > 100 µM |  |  |  |  |  |  |  |  |  | 
CCCCCCCCCCCCCC[n+]1ccc(C(N)=O)cc1 | 5.06 µM | 3.03 µM | 7.05 µM | 2.91 µM |  | 5.39 µM |  | 4.48 µM |  | 21.5 µM | 3.07 µM | 1.76 µM | 0.731 µM | 2.01 µM | 1.05 µM | 1.54 µM | 1.68 µM |  |  | 
CCOc1ccc(C(C)c2cc3c(cc2OC)OCO3)cc1 (stereo not given) |  | 22.2 µM |  | > 100 µM | 0.631 µM | 27.7 µM | > 100 µM | 9.59 µM | 9.93 µM |  |  |  |  |  |  |  |  |  |  | 
CN(O)C(=O)CCCC(=O)NCC(C)(C)CNC(=O)CCCC(=O)N(C)O | > 100 µM | > 100 µM | > 100 µM | > 100 µM | > 100 µM | > 100 µM | > 100 µM | > 100 µM | > 100 µM | > 100 µM |  |  |  |  |  |  |  |  |  | 
Cc1cc(OCCOCCC(F)(F)P(=O)(O)O)ccc1CCc1cnc2c(N)nc3cc(CCC(=O)O)ccc3c2c1 | > 100 µM | > 100 µM | > 100 µM | > 100 µM | > 100 µM | > 100 µM | > 100 µM | > 100 µM | > 100 µM | > 100 µM | 26.2 µM | > 100 µM | > 100 µM | 26.6 µM | > 100 µM | > 100 µM | > 100 µM | > 100 µM | > 100 µM | 6.61 µM
O=C(O)/C(=C\c1ccc(O)cc1)c1cccc2ccccc12 | > 100 µM |  | > 100 µM | > 100 µM |  | > 100 µM | > 100 µM | > 100 µM | > 100 µM | > 100 µM |  |  |  |  |  |  |  |  |  | 
O=P(Nc1ccccc1)(Oc1ccccc1)N(CCCl)CCCl (stereo not given) | > 100 µM |  |  | > 100 µM | > 100 µM | > 100 µM |  | > 100 µM | > 100 µM | > 100 µM |  |  |  |  |  |  |  |  |  | 
COc1cc2cc(C(=O)N3CC(CCl)c4ccc(N(C)C)cc43)[nH]c2c(OC)c1OC (stereo not given) | 0.726 µM |  | 0.758 µM |  | 0.2 µM | 0.363 µM | 8.21 µM |  |  |  |  |  |  |  |  |  |  |  |  | 
Cc1ccc(N=Nc2c(O)ccc3cc(S(=O)(=O)O)ccc23)cc1 | > 100 µM | > 100 µM | > 100 µM | > 100 µM | > 100 µM | > 100 µM | > 100 µM | > 100 µM | > 100 µM | > 100 µM |  |  |  |  |  |  |  |  |  | 
Cc1[nH]c2ccccc2c1/C=N/NC(=O)c1cccc(I)c1 | 43.3 µM | 48.4 µM | 89.8 µM | 75.3 µM | 38.2 µM | 41.2 µM | > 100 µM | > 100 µM | 51.4 µM | 34.6 µM |  |  |  |  |  |  |  |  |  | 
